Patent publication US12364671B1, “Methods of administering vitamin A and lactic acid to gilts” (CHINA AGRICULTURAL UNIVERSITY, priority 2024, dated 2025)

What was measured:
[1] = tested on: cows with reproductive disorders; details: vitamin A 50000 IU per day, alone or with carotene 200 mg per day; cited from earlier work
gilts = assay: Extra vitamin A fed to gilts prior to estrus initiation; format: in vivo; details: extra vitamin A in addition to the diet, no lactic acid
From the text: Therefore, the inventors speculated that the lactic acid may be beneficial to the puberty onset and estrus of the gilts.

sheep = details: 50000 IU per day, continuously fed by 50 days; cited from earlier work

## vitamin A
[1]
  conception rate: significantly increased
  estrogen level: significantly increased
  estrus ate: not significantly affected
  follicle size: not significantly affected
gilts
  delayed estrus initiation or estrus disorder: improve the delayed estrus initiation or estrus disorder in gilts to some extent
sheep
  estrus rate: no significantly affected
  lambing rate: significantly increased
